Experiments:
[1] = target: T1, human recombinant adrenergic α2A receptor (Homo sapiens, UniProt P08913); assay: Radioligand binding, adrenergic α2A ([3H]MK-912); conditions: compound at 0.1 μM; [3H]MK-912; repeat datapoints each shown; 0.1 µM
T1 construct: expressed in transfected cells; host or cells: insect Sf9 cells
T1 sequence (P08913 1-465): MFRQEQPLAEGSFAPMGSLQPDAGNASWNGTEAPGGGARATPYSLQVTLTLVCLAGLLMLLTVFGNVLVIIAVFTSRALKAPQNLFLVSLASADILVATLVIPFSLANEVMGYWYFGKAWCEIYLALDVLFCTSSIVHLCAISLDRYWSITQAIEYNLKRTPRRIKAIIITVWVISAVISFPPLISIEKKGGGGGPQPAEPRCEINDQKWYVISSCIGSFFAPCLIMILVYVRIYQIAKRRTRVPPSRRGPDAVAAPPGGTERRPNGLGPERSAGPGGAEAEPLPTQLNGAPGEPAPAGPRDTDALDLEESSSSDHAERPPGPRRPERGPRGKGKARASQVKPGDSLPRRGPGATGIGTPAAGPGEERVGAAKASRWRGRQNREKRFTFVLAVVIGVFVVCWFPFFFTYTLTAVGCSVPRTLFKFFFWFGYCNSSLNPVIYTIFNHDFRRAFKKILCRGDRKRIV
In short: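 Sf9-expressed receptor was incubated with compound for 60 min at 25 °C in modified Tris-HCl buffer, pH 7.4. Nonspecific binding was taken as that remaining with 10 μM WB-4101.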

[2] = Solubility in MeOH (chiral preparative HPLC data); type: physicochemical; conditions: sample for chiral preparative HPLC
Method: For chiral separations, samples were dissolved in MeOH and EtOH according to the solubility of sample and filtered through 0.22μ. PTFE filters. The columns used were […]-AD; 20*250 mm, 10μ and […]-ODH; 20*250 mm, 5μ. A flow rate of 12 mL/min-17 mL/min was used according to the resolution. Alkanes such as n-Pentane, Hexane and Heptane (40%-95%) and alcohols such as EtOH, Isopropyl alcohol and t-Butanol (5%-60%) were used as mobile phase. In some cases alcohol combinations i.e. (EtOH+MeOH), (EtOH+IPA), (IPA+MeOH), (t-Butanol+MeOH), (t-Butanol+EtOH) were used instead of a single alcohol. Diethyl amine (up to 0.3%) was used as modifier in the mobile phase.
Column: Chiralcel OD-H. Column ID: 20*250 mm, 5μ. Mobile Phase:Hexane: (EtOH:MeOH 80:20)−95:5. Flow rate: 15 mL/min. Solubility: 30 mg/mL in MeOH.
Column: Chiral PAK-AD-H. Column ID: 20*250 mm, 5μ. Mobile Phase:Hexane (0.2% diethylamine):Isopropanol−93:7. Flow rate: 15 mL/min. Solubility: 40 mg/mL in MeOH.

[3] = target: T2, rat adrenergic α1B receptor (Rattus norvegicus, UniProt P15823); assay: Radioligand binding, adrenergic α1B ([3H]Prazosin); conditions: compound at 0.1 μM; [3H]Prazosin; repeat datapoints each shown; 0.1 µM
T2 construct: rat adrenergic α1B receptor obtained from Wistar Rat liver; from tissue; host or cells: Wistar rat liver
T2 sequence (P15823 1-515): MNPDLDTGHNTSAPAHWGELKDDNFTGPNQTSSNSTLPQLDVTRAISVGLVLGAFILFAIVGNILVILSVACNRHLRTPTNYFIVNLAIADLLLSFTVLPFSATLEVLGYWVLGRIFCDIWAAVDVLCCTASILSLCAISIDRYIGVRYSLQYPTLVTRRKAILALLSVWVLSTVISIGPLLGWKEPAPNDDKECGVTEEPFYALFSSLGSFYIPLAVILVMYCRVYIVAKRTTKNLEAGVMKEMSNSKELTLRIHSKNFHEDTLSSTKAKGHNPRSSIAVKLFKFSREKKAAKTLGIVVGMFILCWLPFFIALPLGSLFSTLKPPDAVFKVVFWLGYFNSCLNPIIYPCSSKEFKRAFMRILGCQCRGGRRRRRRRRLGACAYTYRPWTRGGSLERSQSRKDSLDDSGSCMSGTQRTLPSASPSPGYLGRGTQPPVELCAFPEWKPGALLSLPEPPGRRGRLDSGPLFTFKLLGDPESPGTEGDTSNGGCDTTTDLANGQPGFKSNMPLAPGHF
In short: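 Incubation ran 60 min at 25 °C in Tris-HCl buffer (50 mM, pH 7.4, 0.5 mM EDTA) with Wistar rat liver α1B receptor. 10 μM phentolamine set non-specific binding.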

[4] = target: T3, human recombinant adrenergic α2B receptor (Homo sapiens, UniProt P18089); assay: Radioligand binding, adrenergic α2B ([3H]Rauwolscine); conditions: compound at 0.03 μM; [3H]Rauwolscine; repeat datapoints each shown; 0.03 µM
T3 construct: expressed in transfected cells; host or cells: CHO-K1
T3 sequence (P18089 1-450): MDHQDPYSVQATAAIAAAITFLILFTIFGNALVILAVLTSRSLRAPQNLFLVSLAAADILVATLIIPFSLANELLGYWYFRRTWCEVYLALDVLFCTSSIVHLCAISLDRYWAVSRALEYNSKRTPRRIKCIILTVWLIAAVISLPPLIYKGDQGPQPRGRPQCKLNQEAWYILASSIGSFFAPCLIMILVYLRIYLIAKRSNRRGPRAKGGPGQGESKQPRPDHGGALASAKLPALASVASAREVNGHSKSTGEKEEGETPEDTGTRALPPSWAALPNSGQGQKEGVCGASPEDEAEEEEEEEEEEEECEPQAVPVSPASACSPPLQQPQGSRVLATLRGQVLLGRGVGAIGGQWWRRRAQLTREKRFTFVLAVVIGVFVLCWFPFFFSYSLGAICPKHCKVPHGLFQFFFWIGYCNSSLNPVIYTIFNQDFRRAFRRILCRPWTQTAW
In short: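 Membranes from CHO-K1 cells expressing human recombinant α2B, in 50 mM Tris-HCl pH 7.4, 12.5 mM MgCl2, 1 mM EDTA, 0.2% BSA, incubated with compound and 2.5 nM [3H]Rauwolscine, 60 min, 25 °C.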

[5] = tested on: SH-SY5Y cells over-expressing α-syn; assay: Cell viability (MTS reduction) in SH-SY5Y cells over-expressing α-synuclein; type: cell-based; conditions: Homo sapiens, 336 h, α-syn over-expression (−dox), +dox control = 100, 14 days, read-out: Relative cell viability protection
Method: Cell Culture. SH-SY5Y cells stably transfected with a doxycyline-inducible wild-type α-synuclein (α-syn) gene along with control SH-SY5Y cells over-expressing the β-galactosidase (β-gal) gene (a gift from L. Stefanis, Division of Basic Neurosciences, Biomedical Research Foundation of the Academy of Athens, Athens, Greece) are cultured as described by Vekrellis et al. (Vekrellis K, Xilouri M, Emmanouilidou E, Stefanis L. (2009). Inducible over-expression of α-syn in human neuronal cells leads to caspase-dependent non-apoptotic death. J Neurochem 109, 1348-1362). In accordance with this method, cells are cultured and maintained in RPMI 1640, 10% fetal bovine serum supplemented with 250 μg/mL G418 and 50 μg/mL Hygromycin B. Expression of α-syn is switched off in stock cultures with doxycycline (2 μg/mL). For experimental procedures, cells are plated at (4−8×10^4 cells/cm^2) and differentiated in absence of doxycycline and in the presence of 20 μM all-trans retinoic acid (RA) (Sigma, St Louis, Mo., USA).
Viability Assay: Cells are cultured in 96-well plates. After 24 h, cells are treated with RA and Compounds of Invention at 0.1 and 10 nM in the absence of doxycyline. Culture medium with RA and drugs is fully replaced after 7 days. Cell viability is measured by the release of lactate dehydrogenase (LDH) from necrotic cells into the culture medium and by measuring the capacity of cells to metabolize MTS tetrazolium (MTS) after 14 days in culture. LDH leakage is assessed according to the Cytotoxicity Detection KitPlus (Roche, Mannheim, Germany) and MTS reduction is assessed by the CellTiter 96® AQueous One Solution Cell Proliferation assay (Promega Corporation, Madison, Wis., USA).
Assay results for the experiments with α-syn over-expression are presented as the MTS reduction capacity (cell viability) of control cells (+dox), cells over-expressing α-syn (−dox), and cells over-expressing α-syn incubated with Compounds of the Invention at 0.1 nM (FIG. 18A) or 10 nM (FIG. 18B).

[6] = tested on: SH-SY5Y cells; assay: Cell viability (MTS reduction) in 4-Br-A23187-treated SH-SY5Y cells; type: cell-based; conditions: MTS reduction capacity; 4-Br-A23187 2 μM, 24 h; compounds at 10 nM
Method: (§1) After 24 h, cells were depleted from FBS and kept in culture for 24 h before the experiment. Cells were then treated with 4-Br-A23187 (2 μM), hydrogen peroxide (300 μM) or the mitochondrial toxin rotenone (25 μM) in the presence of vehicle or Compound of the Invention for 24 h. Cell death was determined by measurements of LDH release according to the Cytotoxicity Detection KitPlus (Roche, Mannheim, Germany). Cell viability was determined by measuring the capacity of cells to metabolize MTS tetrazolium (MTS) according to the Cytotoxicity Detection KitPlus (Roche, Mannheim, Germany) and MTS reduction is assessed by the CellTiter 96® AQueous One Solution Cell Proliferation assay (Promega Corporation, Madison, Wis., USA). Compounds were screened at 10 nM, using DMSO as vehicle. Assay results for the experiments with hydrogen peroxide are presented as the LDH release (cell death) of untreated cells (control), hydrogen peroxide-treated cells (vehicle), and co-incubation of hydrogen peroxide with Compounds of the Invention treated cells normalized to the vehicle (FIG. 17A). This assay assesses the ability of the test compounds to protect against cell death that is mediated by mitochondrial dysfunction. In the assay, the calcium ionophore 4-Br-A23187 is used to challenge the cells, causing calcium levels to rise in mitochondria, which leads to depolarization and cell death. Test compounds are assessed for their ability to prevent cell death in response to challenge with 4-Br-A23187.

[7] = tested on: SH-SY5Y cells; assay: Cell death (LDH release) in hydrogen peroxide-treated SH-SY5Y cells; type: cell-based; conditions: LDH release normalized to vehicle (=100); hydrogen peroxide 300 μM, 24 h; compounds at 10 nM
Method: as §1, with “SH-SY5Y cells cultured in DMEM/F12 media supplemented with 10% FBS were seeded in 96-well microplates at 150,000 cells/cm^2. After” for “After”

| Percentage inhibition of ligand binding, Adrenergic α2A (0.1 μM) [1] [%] | Solubility [2] [mg/mL] | Percentage inhibition of ligand binding, Adrenergic α1B (0.1 μM) [3] [%] | Percentage inhibition of ligand binding, Adrenergic α2B (0.03 μM) [4] [%] | SMILES | viability at 0.0001 µM ([5]; compounds at 0.1 nM) [%] | viability at 0.01 µM ([5]; compounds at 10 nM) [%] | Relative cell viability protection [6] | LDH release (cell death), relative to vehicle [7] |
| --- | --- | --- | --- | --- | --- | --- | --- | --- |
| −8 | 30 | 61 | 63 | Cc1cnc2c(c1)c1c(n2CC(C)(O)c2ccc(F)cc2)CCN(C)C1 (single isomer, unassigned) [138a] | – | – | – | – |
| 4 | 30 | 22 | 25 | Cc1cnc2c(c1)c1c(n2CC(C)(O)c2ccc(F)cc2)CCN(C)C1 (single isomer, unassigned) [138b] | – | – | – | – |
| – | – | – | – | Cc1ccc2c(c1)c1c(n2CCc2ccc(C)nc2)CCN(C)C1 [Dimebon (DMB), dimebon, reference compound] | 70.5 | 85.7 | 0.3538 | 91.15 |
